In general, IC50 refers to the concentration that gives 50% inhibition.

One data set has as its system CD19+ B cells. Description: Cell viability during plasmablast differentiation (live cell count). The settings on record: for percentage of total viable cells: after 4 days. It is filed as cell-based, human. The source says: To determine live cell count, B cells (see section 8.2.3) were stained with 0.4% trypan blue and live cells counted using the Countess automated cell counter (Invitrogen) in duplicate samples.

A further data set concerns Tsk-1 mouse. Kind of data set: Tight skin-1 (Tsk-1) mouse model: hypodermal thickness and hydroxyproline. In kind it is in vivo. The settings on record: 30 mg/kg. The source says: First, the inhibitory effects of the compound on fibrosis in the Tsk-1 tight skin mouse model were also investigated.
In the next data set the test system is BCL-6, IRF-4 and BLIMP-1. Kind of data set: Transcription factor protein expression by laser scanning cytometry, SLE patient PBMC. Particulars: CD38+ plasmablast/plasma cells, Day 4 and Day 7 SLE patient PBMC. In kind it is cell-based, human. Here is the method: Preparation Of Cytospin From Single Cell Suspension And Immunofluorescence Staining for iCyte: A cell suspension of not more than 0.5×10^6 cells/ml of 2% FBS-containing PBS was prepared. Up to 200 μl of this suspension was loaded in each cuvette and spinned at 800 rpm for 3 min. The cuvette and the paper were carefully detached without damaging the fresh cytospin and proceeded with either immediate fixation or drying. Unfixed cytospins were stored for max 2 days at room temperature. Cells on slides were fixed with increasing concentrations of EtOH and allowed to dry prior to staining. After blocking non-specific binding with normal serum (species same as secondary antibody), sections were incubated with the mixture of following monoclonal antibodies in a humidified chamber at cool room for overnight: (i) anti-human CD38 as plasmablast cell marker, and (ii) anti-BCL-6, IRF-4, BLIMP-1, PAX5 and XBP-1 for transcription factor proteins. After washings, slides were incubated for 1 hr at room temperature in dark with the mixture of secondary antibodies which were raised in different species (with two different fluorochromes, i.e., Alexa Fluor-488 and Alexa Fluor-633). The slides were then rinsed in PBS, counterstained with DAPI for 20 minutes at room temperature, coverslipped with anti-fade fluorescent mounting medium, and sealed with nail polish. The slides were stored in dark at 4° C. To exclude false positives produced by nonspecific binding of the secondary antibody, all of the tissues were treated in the same manner with buffer substituting for the primary antibody. The color of the antibody staining was observed and quantity was analyzed in the tissue sections using iCyte.

Data set [1] has as its system BCL-6, IRF-4, BLIMP-1, PAX5 and XBP-1. Kind of data set: Transcription factor protein expression by intracellular flow cytometry, normal B cell differentiation. In kind it is cell-based, human. Here is the method: (§1) Immunophenotyping For Flow Cytometric Analysis: Cells were stained using multicolor direct immunofluorescence stain for flow cytometric analysis. Surface staining was performed before cell fixation and permeabilization. Cells (50 μl; 1×10^6 cells/ml in washing buffer, 2% FBS with 0.1% NaN3 in PBS) were used for each staining. The cells were stained with isotype control mAb ([…]) and multicolor FITC-conjugated anti-CD20 mAb and PE-conjugated anti-CD38 mAb, or PerCP-Cy5.5 conjugated anti-CD44 mAb, PE-conjugated anti-CD83 mAb were used for day 4 activated B cells (CD20+CD38-cells), and day 4 PBs and day 7 PBs (CD20-CD38+), and other staining, analyzed by flow cytometry as per manufacturer's instructions. The intracellular staining of transcription factor proteins (BCL-6, IRF-4, BLIMP-1, PAX-5 and XBP-1) and IgJ was performed according to the manufacturer's recommendations. Flow cytometric analysis was performed with a FACSCanto using FACSDiva 6 (BD Biosciences). For data analysis, Flowjo (Tree Star) software was used.
B cells were cultured as described in above and cells were harvested at day 4, day 7 for immunofluoresence staining. The cells were first stained for CD20 and CD38, and after cell permeabilization, stained for BCL-6, IRF-4, BLIMP-1, PAX5 and XBP-1, then were analyzed by gating on whole lymphocytes.
(In general: A flow cytometer gives signals particle by particle.)

Another data set relates to IgM. Kind of data set: IgM production by SLE patient PBMC (ELISA). The settings on record: Homo sapiens, read-out: IgM IC50 (nM) SLE (n = 3). (An ELISA detects its analyte on a solid surface through an enzyme-linked reagent.)
The subject of another data set is CD83. Description: CD83 expression in B cell differentiation culture (flow cytometry). It is filed as cell-based, human. Here is the method: as §1
Using the same B cells in vitro differentiation system, the activity of the test compound on CD44 and CD83 expression in B cell differentiation was further investigated. Multicolor FITC-conjugated anti-CD20 mAb, PerCP Cy5.5-conjugated anti-CD44 mAb and PE-conjugated anti-CD83 mAb are used for day 4 and day 7 cells. The effect of the test compound was evaluated from 3 separate experiments representative of 3 donors.

In a further data set the test system is IgG. Kind of data set: IgG production by SLE patient PBMC (ELISA). The settings on record: Homo sapiens, read-out: IgG IC50 (nM) SLE (n = 3).

Description for IgG: (§2) Supernatants (from section 8.2.3) were harvested and analyzed by ELISA for IgG and IgM production (ZeptoMetrix Corp. Buffalo, N.Y.).
(§3) B Cell Differentiation Protocol: Enriched B cells were isolated from fresh buffy-coat (leukocyte enriched units) by Ficoll-Hypaque density gradient centrifugation followed by incubation with EasySep negative selection human B cell enrichment kit (Stem cell technologies). In brief, 2×10^8/ml PBMC were mixed with 4 ml of Robosep buffer and transferred to a 14 mL polystyrene round bottom tube. EasySep Human B cell enrichment cocktail (200 μL) was added per tube, vortexed and incubated at room temperature for 10 minutes. […] After cells were counted, an aliquot was removed for FACS analysis and the remaining cells were used for culture. […]
(§4) CD19+ peripheral blood human B cells from normal donors, or total peripheral blood mononuclear cell PBMC for patients with systemic lupus erythematosus (“SLE”), were cultured in the presence of interleukin (“IL”)-2, IL-10, IL15, TLR9 agonist, and CD40 L for 4 days, followed by IL-2, IL-6, IL-10 and IL-15 for another 3 days. Cells were counted, viability assessed, and expression of CD20, CD38, CD44, and CD83 were measured by flow cytometry. Plasmablast lineage factors IRF-4, BLIMP-1, XBP-1, and IgJ, and germinal center markers PAX-5 and BCL-6 were measured by qRT-PCR. […] Secreted immunoglobulins IgG and IgM were measured by ELISA.
Description for IgM: as §2, §3, §4

For the compound `O=C1CC[C@H](N2Cc3c(OCc4ccc(CN5CCOCC5)cc4)cccc3C2=O)C(=O)N1` [Test compound, (S)-3-[4-(4-morphlin-4-ylmethylbenzyloxy)-1-oxo-1,3-dihydro-isoindo-2-yl]piperidine-2,6-dione], the “percentage of total viable cells” value in the data set with CD19+ B cells (20 nM) is reported as 69.6 % of control; in the data set on CD19+ B cells (200 nM), 35.8 % of control. In addition, in the data set on CD19+ B cells (first 4 days of culture), the B cell viability result was “reduced”. Also, the “reduction of collagen content of the skin (hydroxyproline levels)” value in the data set on Tsk-1 mouse is 38%. Moreover, the “reduction of hypodermal thickening” value in the data set with Tsk-1 mouse (p≤0.001) was found to be 45%. In addition, the BCL-6 expression entry in the data set on BCL-6, IRF-4 and BLIMP-1 is “significantly increased”; with BCL-6, IRF-4 and BLIMP-1 (listed as Compound I-S), “increased”. Also, the BLIMP-1 expression result in the data set with BCL-6, IRF-4 and BLIMP-1 is recorded as “inhibited”; in the data set with BCL-6, IRF-4 and BLIMP-1 (listed as Compound I-S) it was “significantly reduced”. Besides, the RF-4 expression entry with BCL-6, IRF-4 and BLIMP-1 is recorded as “inhibited”; with BCL-6, IRF-4 and BLIMP-1 (listed as Compound I-S), “significantly reduced”. For the same compound, the BLIMP-1 protein expression result in data set [1] (Day 4, 20 nM) is “significantly decreased”. Besides, in data set [1] (Day 4, 20 nM), the IRF-4 protein expression result is on record as “significantly decreased”. The XBP-1 protein expression entry in data set [1] (Day 4, 20 nM) is reported as “significantly decreased”. Also, the BCL-6 protein expression result in data set [1] (Day 7, 20 nM) is on record as “significantly increased”. Moreover, the IC50 in the data set with IgM came to 0.9 nM; in the data set on IgG, 3.2 nM. Also, the “total CD83+ cell population” value in the data set with CD83 is “significantly increased”. Further, the “percentage of CD83+ cells” value in the data set on CD83 (Day 4, 2 nM, DMSO 13.4%±2.4%) stood at 24.1%; in the data set with CD83 (Day 4, 20 nM, DMSO 13.4%±2.4%), 40.2%; with CD83 (Day 4, 200 nM, DMSO 13.4%±2.4%) it was 49.5%; in the data set on CD83 (Day 7, 2 nM, DMSO […]±3.3) it was 16.3%; with CD83 (Day 7, 20 nM, DMSO […]±3.3), 36.1%; in the data set on CD83 (Day 7, 200 nM, DMSO […]±3.3), 51.9%.

These data come from US11524950B2, “Treatment of immune-related and inflammatory diseases” (Celgene Corporation, priority 2012, dated 2022).
